The values below come from patent publication US20230381142A1, “ANTILEISHMANIAL COMPOUNDS, COMPOSITIONS AND USE THEREOF” (TRUSTEES OF BOSTON UNIVERSITY, priority 2022, published 2023).

pEC50, pIC50: −log10 of the molar value. Values after ≈ are worked out from the molar mass of the structure shown.

In data set [1] the test system is L. donovani intracellular amastigotes infecting THP-1 cells. The experiment in a line: High content intracellular amastigote assay in THP-1 cells (Assay Conditions B; CDIPD screen). In kind it is cell-based, Leishmania donovani. The settings on record: for L. donovani amastigotes % GI at 10 μM (THP-1 cells): footnote b. As for the experimental part: (§1) Assay Conditions B: THP-1 cells (human acute monocytic leukemia cell line—ATCC TIB202) were grown in RPMI supplemented with 10% Fetal Bovine Serum (FBS) and 50 μM 2-mercaptoethanol at 37° C. in 5% CO2. THP-1 were seeded in microwell plates at 5×10^5 cells/mL density and treated with 0.1 μM phorbol myristate acetate (PMA, Sigma) at 37° C. for 48 h for differentiation into adherent, non-dividing macrophages. After activation by PMA, cells were washed and incubated with complete RPMI medium containing stationary phase Leishmania promastigotes (L. major: strain LV39; L. donovani, strain 1S/Cl2D) at a 1:15 parasite-cell ratio. Compounds were added and incubated at 37° C. for 72 h. Cells were then washed with phosphate-buffered saline (PBS), fixed for 30 minutes with 4% formaldehyde, rinsed again with PBS, stained for 2 h with 4′,6′-diamidino-2-phenylindole (DAPI 300 nM) and finally washed with PBS. In a collaborative effort to identify new antileishmanial chemotypes with minimal host cell cytotoxicity, compounds from the Boston University Center for Molecular Discovery (BUCMD) screening collection were assessed in a phenotypic, high content primary screen at the University of California's Center for Discovery and Innovation in Parasitic Diseases (CDIPD) for the ability to inhibit growth of L. donovani intracellular amastigotes infecting THP-1 cells. […] Dose-response testing in L. donovani (both intracellular amastigotes and promastigotes) confirmed concentration-dependent growth inhibition of both morphologies of the parasite at low micromolar EC50 values for both compounds (Table 1).

The next data set has as its system THP-1 cells. As to the kind of experiment: Host THP-1 cell cytotoxicity in the CDIPD high content screen. The format is cell-based, human. Particulars: Homo sapiens, THP-1; 10 μM; footnote b; read-out: THP-1 host cell % growth inhibition at 10 μM. As for the experimental part: as §1
The next data set addresses human serum albumin (Homo sapiens, UniProt P02768). The experiment in a line: Human serum albumin (HSA) binding, chromatographic. In kind it is in vitro ADME. As to the method: The percentage of compound bound to human serum albumin was measured using a chromatographic method as described. Briefly, each compound was assayed on an immobilized HSA column and gradient retention times measured, with chromatographic peak detection by UV. Each retention time was then converted to a % HSA bound value using a calibration set of compounds with a known % HSA binding.

In data set [2] the test system is L. donovani intracellular amastigotes infecting THP-1 macrophages. The experiment in a line: GSK intramacrophage L. donovani assay (LD AMMAC, inMac; Assay Conditions C). The format is cell-based. Particulars: Leishmania donovani, THP-1. Put shortly: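 L. donovani amastigotes within THP-1 macrophages; EC50 based on average intracellular amastigotes per infected cell (AMMAC). Infected-cell percentage (INFCELL) and host-cell number (MAC) also read, the latter as toxicity output.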

The test system of data set [3] is L. donovani intracellular amastigotes in B10R cells. As to the kind of experiment: UCSD L. donovani infection assay (Assay Conditions D). The format is cell-based. The settings on record: Leishmania donovani; for pEC50: average of two biological replicates, read-out: L. donovani EC50 (UCSD assay). The method in brief: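 B10R cells (300/well) infected with stationary-phase L. donovani WT promastigotes at 20 parasites/cell in DMEM high-glucose, 5% FBS, with compounds 72 h at 37° C., 5% CO2. Formaldehyde-fixed, DAPI-stained, imaged by high-content microscopy; 10-point 2-fold dilutions (screen at 10 μM) gave EC50 and host CC50.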

Data set [4] is described as follows: Kinetic aqueous solubility by CAD. In kind it is physicochemical. Particulars: aqueous medium, kinetic from dmso stock, high-throughput CAD. As for the experimental part:
Solubility of compounds using ChemiLuminescent Nitrogen Detection (CLND) was measured as described. Solubility of compounds using Charged Aerosol Detection (CAD) was measured as described. Solubility of solid compounds in Fasted Simulated Intestinal Fluid (FaSSIF) was measured as described.

Data set [5] can be described thus: Property forecast index (PFI = ChromLogD7.4 + aromatic rings). The format is physicochemical.
A short description of data set [6]: UCSD infection assay, host cell cytotoxicity (CC50). The format is cell-based. Particulars: host macrophages infected with L. donovani; cytotoxicity against host macrophages.

human serum albumin, sequence (P02768 25-609): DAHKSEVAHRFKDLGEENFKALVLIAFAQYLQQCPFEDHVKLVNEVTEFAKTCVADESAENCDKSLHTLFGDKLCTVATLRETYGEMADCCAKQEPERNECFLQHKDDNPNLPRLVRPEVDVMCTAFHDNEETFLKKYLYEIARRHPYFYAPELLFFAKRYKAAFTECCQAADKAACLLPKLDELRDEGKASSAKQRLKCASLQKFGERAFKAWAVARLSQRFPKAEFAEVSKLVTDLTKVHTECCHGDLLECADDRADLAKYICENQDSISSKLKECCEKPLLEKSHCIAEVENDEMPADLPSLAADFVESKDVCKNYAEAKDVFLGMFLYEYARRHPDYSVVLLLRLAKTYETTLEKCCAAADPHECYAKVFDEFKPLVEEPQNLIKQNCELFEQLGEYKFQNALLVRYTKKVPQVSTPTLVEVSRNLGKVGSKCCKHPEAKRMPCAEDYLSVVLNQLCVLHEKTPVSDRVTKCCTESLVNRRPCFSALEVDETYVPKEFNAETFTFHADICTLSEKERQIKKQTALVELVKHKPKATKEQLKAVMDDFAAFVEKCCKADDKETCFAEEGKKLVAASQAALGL

Take `COc1ccc(N2C(=O)c3[nH]nc(C)c3C2c2ccc(C)cc2)cc1` (centres unmarked) [CMLD007247]: the “L. donovani amastigotes % GI at 10 μM (THP-1 cells)” value (“L. donovani amastigotes % GI” below) in data set [1] came to 0.0%. Moreover, the inhibition at 10 µM with THP-1 cells was less than 10%.
As to `COc1ccc(N2C(=O)c3[nH]nc(-c4ccccc4)c3C2c2ccc(C)cc2)cc1` (centres unmarked) [CMLD007262], the “L. donovani amastigotes % GI” value in data set [1] is 0.0%. Further, in the data set on THP-1 cells, the inhibition at 10 µM is less than 10%.
Take `COc1ccc(N2C(=O)c3[nH]nc(C(C)C)c3C2c2ccccc2)cc1` (centres unmarked) [CMLD007286]: the “L. donovani amastigotes % GI” value in data set [1] came to 0.0%. Further, the inhibition at 10 µM in the data set on THP-1 cells is less than 10%.
Consider `CC(C)Cc1n[nH]c2c1C(c1ccccc1)N(c1ccccc1)C2=O` (centres unmarked) [CMLD007421], for which the “L. donovani amastigotes % GI” value in data set [1] was 0.0%. Further, the inhibition at 10 µM in the data set on THP-1 cells was less than 10%.
In the same order, the values of `Cc1ccc(C2c3c(CC(C)C)n[nH]c3C(=O)N2c2ccccc2)cc1` (centres unmarked) [CMLD007424] are 81.0% and 35%.
As to `CC(C)Cc1n[nH]c2c1C(c1ccc(F)cc1)N(c1ccccc1)C2=O` (centres unmarked) [CMLD007425], in data set [1], the “L. donovani amastigotes % GI” value was 15.0%. Also, the inhibition at 10 µM in the data set with THP-1 cells was determined as 13%.
For the molecule `COc1ccc(N2C(=O)c3[nH]nc(CC(C)C)c3C2c2ccc(C)cc2)cc1` (centres unmarked) [CMLD007430], the “L. donovani amastigotes % GI” value in data set [1] worked out at 0.0%. Also, the inhibition at 10 µM in data set [1] (Leishmania donovani, THP-1, read-out: inhibition at 10 μM (initial screening)) is 0%; in the data set on THP-1 cells, less than 10%.
Turning to `CC(C)Cc1n[nH]c2c1C(c1ccccc1Cl)N(c1ccc3c(c1)OCO3)C2=O` (centres unmarked) [Compound 67, 5-(benzo[d][1,3]dioxol-5-yl)-4-(2-chlorophenyl)-3-isobutyl-4,5-dihydropyrrolo[3,4-c]pyrazol-6(1H)-one], at human serum albumin, the “HSA Binding” value is 98.0%. Besides, in data set [2], the pIC50 is 6.30. For the same molecule, in data set [3], the pIC50 was 6.70 and the pEC50 was 6.80. In data set [4], this molecule had a solubility of 35 µM (≈ 14.3 µg/mL). In addition, the PFI in data set [5] was 8.7. This molecule registered a CC50 at 72 h in data set [6] of 12200 nM.
Turning to `Cc1cc(F)ccc1C1c2c(CC(C)C)n[nH]c2C(=O)N1c1ccc2c(c1)OCO2` (centres unmarked) [Compound 70, 5-(benzo[d][1,3]dioxol-5-yl)-4-(4-fluoro-2-methylphenyl)-3-isobutyl-4,5-dihydropyrrolo[3,4-c]pyrazol-6(1H)-one], the “HSA Binding” value on human serum albumin came out at 97.6%. Also, the pIC50 was less than 4.00 in data set [2] and 7.00 in data set [3]. Besides, in data set [3], the pEC50 was 7.00. This molecule also came in with a solubility in data set [4] of 46 µM (≈ 18.7 µg/mL). Besides, in data set [5], the PFI was 8.6. Moreover, the midpoint of cytotoxicity in data set [6], the CC50 at 72 h, lay at 12100 nM.
With `COc1ccc(N2C(=O)c3[nH]nc(CC(C)C)c3C2c2ccccc2OC)cc1F` (centres unmarked) [Compound 72, 5-(3-fluoro-4-methoxyphenyl)-3-isobutyl-4-(2-methoxyphenyl)-4,5-dihydropyrrolo[3,4-c]pyrazol-6(1H)-one], the “HSA Binding” value at human serum albumin is listed as 95.9%. Besides, the pIC50 in data set [2] is 5.89. In addition, in data set [3], the pIC50 is 6.40 and the pEC50 is 6.42. In data set [4], the concentration in solution (solubility) came to 43 µM (≈ 17.6 µg/mL). Further, the PFI in data set [5] is 8.5. The CC50 at 72 h in data set [6] came out at 260 nM.
For the molecule `COc1ccc(N2C(=O)c3[nH]nc(CC(C)C)c3C2c2ccc(F)cc2C)cc1F` (centres unmarked) [Compound 73, 4-(4-fluoro-2-methylphenyl)-5-(3-fluoro-4-methoxyphenyl)-3-isobutyl-4,5-dihydropyrrolo[3,4-c]pyrazol-6(1H)-one], at human serum albumin, the “HSA Binding” value is 96.3%. The pIC50 is 5.49 in data set [2] and 6.70 in data set [3]. In addition, the pEC50 in data set [3] was 6.80. The solubility in data set [4] was 35 µM (≈ 14.4 µg/mL). Moreover, the PFI in data set [5] stood at 8.8. The molecule also had a CC50 at 72 h in data set [6] of 10900 nM.
For the molecule `CC(C)Cc1n[nH]c2c1C(c1ccccc1Br)N(c1ccc(Br)cc1)C2=O` (centres unmarked) [Compound 74, 4-(2-bromophenyl)-5-(4-bromophenyl)-3-isobutyl-4,5-dihydropyrrolo[3,4-c]pyrazol-6(1H)-one], the “HSA Binding” value at human serum albumin was found to be 98.0%. In data set [2], this molecule had a pIC50 of 5.00. In data set [3], the pIC50 is 6.40 and the pEC50 was 6.41. In data set [4], this molecule gave a solubility of less than 1 µM. The PFI in data set [5] turned out to be 10.4. The molecule further showed a CC50 at 72 h in data set [6] of 4980 nM.
On to `COc1ccccc1C1c2c(CC(C)C)n[nH]c2C(=O)N1c1ccc(Br)cc1` (centres unmarked) [Compound 75, 5-(4-bromophenyl)-3-isobutyl-4-(2-methoxyphenyl)-4,5-dihydropyrrolo[3,4-c]pyrazol-6(1H)-one], for which, on human serum albumin, the “HSA Binding” value was determined as 97.5%. Besides, the values for the pIC50 in data set [2] and in data set [3] were 6.30 and 6.70, respectively. Also, the pEC50 in data set [3] is 6.62. The same molecule had a solubility in data set [4] of less than 1 µM. The PFI in data set [5] is reported as 9.6. This molecule registered a CC50 at 72 h in data set [6] of 1140 nM.
Turning to `Cc1cc(F)ccc1C1c2c(CC(C)C)n[nH]c2C(=O)N1c1ccc(Br)cc1` (centres unmarked) [Compound 76, 5-(4-bromophenyl)-4-(4-fluoro-2-methylphenyl)-3-isobutyl-4,5-dihydropyrrolo[3,4-c]pyrazol-6(1H)-one], the “HSA Binding” value on human serum albumin stood at 97.7%. This molecule gave a pIC50 in data set [2] of 6.22. Moreover, in data set [3], the pIC50 was 7.00 and the pEC50 was 6.92. This molecule also yielded a solubility in data set [4] of less than 1 µM. For the same molecule, the PFI in data set [5] is recorded as 9.8. For the same molecule, the CC50 at 72 h in data set [6] was 3040 nM.
Consider `COc1cc(F)ccc1C1c2c(CC(C)C)n[nH]c2C(=O)N1c1ccc(Br)cc1` (centres unmarked) [Compound 77, 5-(4-bromophenyl)-4-(4-fluoro-2-methoxyphenyl)-3-isobutyl-4,5-dihydropyrrolo[3,4-c]pyrazol-6(1H)-one], for which the “HSA Binding” value at human serum albumin stood at 98.5%. Moreover, the pIC50 in data set [2] and in data set [3] was 7.00 in each case. The pEC50 in data set [3] was 6.92. Further, in data set [4], the solubility was less than 1 µM. For the same molecule, in data set [5], the PFI is on record as 9.7. The molecule further had a CC50 at 72 h in data set [6] of 4040 nM.
For the molecule `CC(C)Cc1n[nH]c2c1C(c1ccccc1Cl)N(c1ccc(N(C)C)cc1)C2=O` (centres unmarked) [Compound 78, 4-(2-chlorophenyl)-5-(4-(dimethylamino)phenyl)-3-isobutyl-4,5-dihydropyrrolo[3,4-c]pyrazol-6(1H)-one], the “HSA Binding” value at human serum albumin turned out to be 96.7%. Also, the pIC50 in data set [2] is 6.10. In data set [3], the negative logarithm of the IC50 (pIC50) was 6.52 and the pEC50 was 6.59. In data set [4], the solubility worked out at 21 µM (≈ 8.59 µg/mL). Also, the PFI in data set [5] turned out to be 9.4. This molecule also displayed a CC50 at 72 h in data set [6] of 7320 nM.
Regarding `COc1ccccc1C1c2c(CC(C)C)n[nH]c2C(=O)N1c1ccc(N(C)C)cc1` (centres unmarked) [Compound 80, 5-(4-(dimethylamino)phenyl)-3-isobutyl-4-(2-methoxyphenyl)-4,5-dihydropyrrolo[3,4-c]pyrazol-6(1H)-one], the “HSA Binding” value at human serum albumin came out at 95.7%. This molecule also showed a pIC50 in data set [2] of 6.70. In data set [3], the pIC50 was 7.00 and the pEC50 is 7.15. Also, the concentration in solution in data set [4] (solubility) came to 66 µM (≈ 26.7 µg/mL). In data set [5], the PFI is given as 8.6. Also, the CC50 at 72 h in data set [6] worked out at 3450 nM.
Consider `Cc1cc(F)ccc1C1c2c(CC(C)C)n[nH]c2C(=O)N1c1ccc(N(C)C)cc1` (centres unmarked) [Compound 81, 5-(4-(dimethylamino)phenyl)-4-(4-fluoro-2-methylphenyl)-3-isobutyl-4,5-dihydropyrrolo[3,4-c]pyrazol-6(1H)-one], for which the “HSA Binding” value at human serum albumin was 96.5%. Besides, the pIC50 in data set [2] and in data set [3] was 7.00 each time. In data set [3], the pEC50 was 6.96. Also, the solubility in data set [4] is 27 µM (≈ 11 µg/mL). Further, the PFI in data set [5] was determined as 9.1. Besides, in data set [6], the CC50 at 72 h worked out at 7510 nM.
